Results taken from PubChem BioAssay AID1918991 (Molecular Pharmacology Branch, DTP, NCI, 2023).

Test system: 186277-243-T-J2-PDC complex spheroid growth
Test: Anticancer human tumor 186277-243-T-J2-PDC patient-derived colon adenocarcinoma cell line growth inhibition [AhR]
Settings: for IC50: curve of first compound; for viability, T/C: stronger effect = lower value
Outline: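 Agents were dosed in half-log steps down from roughly clinical Cmax, or from 10 microM where Cmax was unknown, alone and with AhR antagonists. Read-out: percent test/control growth of tumor spheroids containing HUVEC and MSC stromal cells.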
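Note: spheroids exposed to compounds for seven days before the viability read.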
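Throughout, for viability, T/C: luminescent signal used as a stand-in for viable cell amount; 100% = DMSO vehicle control wells.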

In the case of `CCN(c1cc(-c2ccc(CN3CCOCC3)cc2)cc(C(=O)NCc2c(C)cc(C)[nH]c2=O)c1C)C1CCOCC1` + Cc1cncc(-c2nc(NCCc3c[nH]c4ccccc34)c3ncn(C(C)C)c3n2)c1, the IC50 (second compound 0.1 µM) is reported as > 3 µM, the IC50 (second compound 0.316 µM) is reported as > 3 µM and the IC50 (second compound 1 µM) is reported as > 3 µM. The IC50 (second compound 3.16 µM) was > 3 µM, the IC50 (second compound 10 µM) was 0.652 µM and the viability, T/C (second compound 0.1 µM, first compound 0.00949 µM) was 106%. It also gave a viability, T/C (second compound 0.1 µM, first compound 0.03 µM) of 89.7%, a viability, T/C (second compound 0.1 µM, first compound 0.0949 µM) of 108% and a viability, T/C (second compound 0.1 µM, first compound 0.3 µM) of 102%. For the same compound, the viability, T/C (second compound 0.1 µM, first compound 0.949 µM) was 94%, the viability, T/C (second compound 0.1 µM, first compound 3 µM) was 98.5% and the viability, T/C (second compound 0.316 µM, first compound 0.00949 µM) was 91.8%. It also gave a viability, T/C (second compound 0.316 µM, first compound 0.03 µM) of 110%, a viability, T/C (second compound 0.316 µM, first compound 0.0949 µM) of 102% and a viability, T/C (second compound 0.316 µM, first compound 0.3 µM) of 101%. It also gave a viability, T/C (second compound 0.316 µM, first compound 0.949 µM) of 106%, a viability, T/C (second compound 0.316 µM, first compound 3 µM) of 103% and a viability, T/C (second compound 1 µM, first compound 0.00949 µM) of 98%. For the same compound, the viability, T/C (second compound 1 µM, first compound 0.03 µM) was 115%, the viability, T/C (second compound 1 µM, first compound 0.0949 µM) was 115% and the viability, T/C (second compound 1 µM, first compound 0.3 µM) was 102%. For the same compound, the viability, T/C (second compound 1 µM, first compound 0.949 µM) was 111%, the viability, T/C (second compound 1 µM, first compound 3 µM) was 107% and the viability, T/C (second compound 3.16 µM, first compound 0.00949 µM) was 102%. It also gave a viability, T/C (second compound 3.16 µM, first compound 0.03 µM) of 103%, a viability, T/C (second compound 3.16 µM, first compound 0.0949 µM) of 103% and a viability, T/C (second compound 3.16 µM, first compound 0.3 µM) of 105%. For the same compound, the viability, T/C (second compound 3.16 µM, first compound 0.949 µM) was 90.7%, the viability, T/C (second compound 3.16 µM, first compound 3 µM) was 119% and the viability, T/C (second compound 10 µM, first compound 0.00949 µM) was 84.8%. It also gave a viability, T/C (second compound 10 µM, first compound 0.03 µM) of 98.5%, a viability, T/C (second compound 10 µM, first compound 0.0949 µM) of 82.9% and a viability, T/C (second compound 10 µM, first compound 0.3 µM) of 72.1%. For the same compound, the viability, T/C (second compound 10 µM, first compound 0.949 µM) was 39.6% and the viability, T/C (second compound 10 µM, first compound 3 µM) was 9.95%.

`NS(=O)(=O)OCC1CC(n2ccc3c(NC4CCc5ccccc54)ncnc32)CC1O` (stereo not given) + CC(CO)NC(=O)c1cc(-c2ccc(Cl)cc2)nn(-c2cnn(C)c2)c1=O gave an IC50 (second compound 0.1 µM) of 0.205 µM, an IC50 (second compound 0.316 µM) of 0.193 µM and an IC50 (second compound 1 µM) of 0.15 µM. The IC50 (second compound 3.16 µM) was 0.139 µM, the IC50 (second compound 10 µM) was 0.11 µM and the viability, T/C (second compound 0.1 µM, first compound 0.0316 µM) was 102%. The viability, T/C (second compound 0.1 µM, first compound 0.1 µM) was 76.7%, the viability, T/C (second compound 0.1 µM, first compound 0.316 µM) was 33.5% and the viability, T/C (second compound 0.1 µM, first compound 1 µM) was 11%. For the same compound, the viability, T/C (second compound 0.1 µM, first compound 3.16 µM) was 4.62%, the viability, T/C (second compound 0.1 µM, first compound 10 µM) was 1.34% and the viability, T/C (second compound 0.316 µM, first compound 0.0316 µM) was 91.8%. For the same compound, the viability, T/C (second compound 0.316 µM, first compound 0.1 µM) was 76.7%, the viability, T/C (second compound 0.316 µM, first compound 0.316 µM) was 29.4% and the viability, T/C (second compound 0.316 µM, first compound 1 µM) was 10.7%. It also gave a viability, T/C (second compound 0.316 µM, first compound 3.16 µM) of 3.18%, a viability, T/C (second compound 0.316 µM, first compound 10 µM) of 0.98% and a viability, T/C (second compound 1 µM, first compound 0.0316 µM) of 89.9%. For the same compound, the viability, T/C (second compound 1 µM, first compound 0.1 µM) was 65.1%, the viability, T/C (second compound 1 µM, first compound 0.316 µM) was 22.1% and the viability, T/C (second compound 1 µM, first compound 1 µM) was 8.96%. The viability, T/C (second compound 1 µM, first compound 3.16 µM) was 3.1%, the viability, T/C (second compound 1 µM, first compound 10 µM) was 1.27% and the viability, T/C (second compound 3.16 µM, first compound 0.0316 µM) was 78.3%. The viability, T/C (second compound 3.16 µM, first compound 0.1 µM) was 61.1%, the viability, T/C (second compound 3.16 µM, first compound 0.316 µM) was 22.9% and the viability, T/C (second compound 3.16 µM, first compound 1 µM) was 7.89%. For the same compound, the viability, T/C (second compound 3.16 µM, first compound 3.16 µM) was 2.24%, the viability, T/C (second compound 3.16 µM, first compound 10 µM) was 1.06% and the viability, T/C (second compound 10 µM, first compound 0.0316 µM) was 63.5%. The viability, T/C (second compound 10 µM, first compound 0.1 µM) was 53.2%, the viability, T/C (second compound 10 µM, first compound 0.316 µM) was 22% and the viability, T/C (second compound 10 µM, first compound 1 µM) was 8.3%. For the same compound, the viability, T/C (second compound 10 µM, first compound 3.16 µM) was 2.58% and the viability, T/C (second compound 10 µM, first compound 10 µM) was 1.14%.
